According to patent EP0933350A1, “Tricyclic retinoids, methods for their production and use” (LIGAND PHARMACEUTICALS INCORPORATED, priority 1994, dated 1996):

Assays:
RXRγ [1] = target: T1, RXRγ (Mus musculus, UniProt P28705); assay: co-transfection assay (RAR/RXR agonist activity, luciferase reporter in CV-1 cells); type: cell-based; conditions: read-out: RXRγ Pot
T1 sequence (P28705 1-463): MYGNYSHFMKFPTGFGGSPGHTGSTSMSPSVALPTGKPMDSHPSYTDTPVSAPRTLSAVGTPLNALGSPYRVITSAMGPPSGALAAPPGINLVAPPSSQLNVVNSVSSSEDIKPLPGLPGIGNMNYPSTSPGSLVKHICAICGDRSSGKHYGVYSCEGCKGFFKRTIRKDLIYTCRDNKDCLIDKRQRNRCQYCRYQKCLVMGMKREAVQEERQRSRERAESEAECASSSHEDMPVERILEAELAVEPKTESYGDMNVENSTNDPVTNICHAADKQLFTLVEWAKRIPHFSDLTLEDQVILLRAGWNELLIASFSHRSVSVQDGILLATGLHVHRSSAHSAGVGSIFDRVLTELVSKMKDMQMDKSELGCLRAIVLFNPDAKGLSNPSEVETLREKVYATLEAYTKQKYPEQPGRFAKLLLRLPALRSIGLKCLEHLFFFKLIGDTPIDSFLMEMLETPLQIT

RARβ [2] = target: T2, RARβ (Homo sapiens, UniProt P10826); assay: as above; type: cell-based; conditions: potency = EC50, agonist, 40 hours, read-out: RARβ Pot
T2 sequence (P10826 1-448 isoform P10826-2): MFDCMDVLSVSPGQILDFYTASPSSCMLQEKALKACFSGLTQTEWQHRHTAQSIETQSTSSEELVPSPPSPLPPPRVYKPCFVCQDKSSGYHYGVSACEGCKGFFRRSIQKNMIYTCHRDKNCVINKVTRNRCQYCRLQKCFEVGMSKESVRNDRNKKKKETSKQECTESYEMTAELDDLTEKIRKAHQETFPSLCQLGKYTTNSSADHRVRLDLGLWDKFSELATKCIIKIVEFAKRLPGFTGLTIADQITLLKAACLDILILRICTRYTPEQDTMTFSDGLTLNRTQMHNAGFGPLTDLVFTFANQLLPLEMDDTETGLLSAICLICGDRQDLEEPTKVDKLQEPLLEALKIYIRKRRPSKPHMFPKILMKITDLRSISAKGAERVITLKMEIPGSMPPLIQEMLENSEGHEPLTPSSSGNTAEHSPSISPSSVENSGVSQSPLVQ

RXRβ [3] = target: T3, RXRβ (Mus musculus, UniProt P28704); assay: as above; type: cell-based; conditions: read-out: RXRβ Pot
T3 sequence (P28704 1-520): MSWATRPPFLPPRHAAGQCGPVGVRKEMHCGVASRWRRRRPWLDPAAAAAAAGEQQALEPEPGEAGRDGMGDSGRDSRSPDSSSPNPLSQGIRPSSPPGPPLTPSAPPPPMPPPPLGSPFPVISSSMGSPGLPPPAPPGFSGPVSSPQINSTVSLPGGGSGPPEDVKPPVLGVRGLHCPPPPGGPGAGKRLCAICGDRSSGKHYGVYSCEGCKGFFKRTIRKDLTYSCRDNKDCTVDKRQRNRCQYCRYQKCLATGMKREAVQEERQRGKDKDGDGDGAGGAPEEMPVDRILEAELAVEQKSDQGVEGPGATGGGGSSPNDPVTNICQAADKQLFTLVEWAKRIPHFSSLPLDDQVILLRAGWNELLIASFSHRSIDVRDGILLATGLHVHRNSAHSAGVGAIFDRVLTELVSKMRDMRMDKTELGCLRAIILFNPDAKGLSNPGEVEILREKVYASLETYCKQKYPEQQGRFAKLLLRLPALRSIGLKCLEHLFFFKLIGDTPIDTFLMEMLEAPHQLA

RARγ [4] = target: T4, RARγ (Homo sapiens, UniProt P13631); assay: as above; type: cell-based; conditions: potency = EC50, agonist, 40 hours, read-out: RARγ Pot
T4 sequence (P13631 1-454): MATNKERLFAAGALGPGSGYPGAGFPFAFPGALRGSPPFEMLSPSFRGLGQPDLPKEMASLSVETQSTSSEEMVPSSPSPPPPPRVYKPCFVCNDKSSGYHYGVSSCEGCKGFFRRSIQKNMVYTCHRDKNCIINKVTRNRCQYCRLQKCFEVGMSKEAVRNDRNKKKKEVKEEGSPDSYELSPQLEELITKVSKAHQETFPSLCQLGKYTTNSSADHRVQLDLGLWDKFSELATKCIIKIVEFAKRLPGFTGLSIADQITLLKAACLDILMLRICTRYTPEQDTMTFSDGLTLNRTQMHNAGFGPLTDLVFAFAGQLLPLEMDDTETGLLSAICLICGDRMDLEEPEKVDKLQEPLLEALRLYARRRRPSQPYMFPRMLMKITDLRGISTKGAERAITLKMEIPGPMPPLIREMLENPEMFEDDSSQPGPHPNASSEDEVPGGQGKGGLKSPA

RXRα [5] = target: T5, RXRα (Homo sapiens, UniProt P19793); assay: as above; type: cell-based; conditions: read-out: RXRα Pot
T5 sequence (P19793 1-462): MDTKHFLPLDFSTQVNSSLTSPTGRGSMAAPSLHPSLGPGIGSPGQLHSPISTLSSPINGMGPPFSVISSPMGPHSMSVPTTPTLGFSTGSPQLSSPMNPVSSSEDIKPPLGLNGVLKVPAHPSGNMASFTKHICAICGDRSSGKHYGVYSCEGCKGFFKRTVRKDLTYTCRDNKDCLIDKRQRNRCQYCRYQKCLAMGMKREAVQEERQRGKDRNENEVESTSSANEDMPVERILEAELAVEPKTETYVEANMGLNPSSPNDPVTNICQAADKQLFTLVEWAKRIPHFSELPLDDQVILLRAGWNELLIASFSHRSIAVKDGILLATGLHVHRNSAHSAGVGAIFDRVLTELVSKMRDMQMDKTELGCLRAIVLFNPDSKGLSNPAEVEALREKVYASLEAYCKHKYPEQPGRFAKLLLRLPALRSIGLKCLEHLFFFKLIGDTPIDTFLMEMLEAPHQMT

RARα [6] = target: T6, RARα (Homo sapiens, UniProt P10276); assay: as above; type: cell-based; conditions: read-out: RARα Pot
T6 sequence (P10276 1-462): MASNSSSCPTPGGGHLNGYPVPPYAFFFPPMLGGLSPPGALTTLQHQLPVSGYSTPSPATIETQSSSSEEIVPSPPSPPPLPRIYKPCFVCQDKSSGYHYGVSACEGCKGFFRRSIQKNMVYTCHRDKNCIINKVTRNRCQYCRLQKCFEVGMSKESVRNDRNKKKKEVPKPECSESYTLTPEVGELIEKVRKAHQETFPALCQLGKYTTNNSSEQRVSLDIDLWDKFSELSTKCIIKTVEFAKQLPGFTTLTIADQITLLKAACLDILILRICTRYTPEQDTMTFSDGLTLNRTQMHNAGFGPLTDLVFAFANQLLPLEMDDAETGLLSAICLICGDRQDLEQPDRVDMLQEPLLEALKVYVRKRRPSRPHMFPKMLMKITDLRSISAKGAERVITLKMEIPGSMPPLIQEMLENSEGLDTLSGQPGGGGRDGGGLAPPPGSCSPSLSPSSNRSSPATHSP

ME 180 cell line = assay: viability (tetrazolium dye, mitochondrial function); type: cell-based; conditions: Homo sapiens, 96 hours, read-out: MTS IC50
RPMI 8226 cell line = assay: as above; type: cell-based; conditions: Homo sapiens, 96 hours, read-out: MTS IC50
AML-193 cell line = assay: as above; type: cell-based; conditions: Homo sapiens, 96 hours, read-out: MTS IC50
RXRα [7] = target: T5, RXRα; assay: competitive binding of tritiated retinoids to retinoid receptors; conditions: competition with tritiated retinoid, Cheng-Prussof equation
RXRβ [8] = target: T3, RXRβ; assay: as above; conditions: competition with tritiated retinoid, Cheng-Prussof equation
RARγ [9] = target: T4, RARγ; assay: as above; conditions: competition with tritiated retinoid, Cheng-Prussof equation
RXRγ [10] = target: T1, RXRγ; assay: as above; conditions: competition with tritiated retinoid, Cheng-Prussof equation
RARα [11] = target: T6, RARα; assay: as above; conditions: competition with tritiated retinoid, Cheng-Prussof equation
RARβ [12] = target: T7, RARβ (Homo sapiens, UniProt P10826); assay: as above; conditions: competition with tritiated retinoid, Cheng-Prussof equation
T7 sequence (P10826 1-455): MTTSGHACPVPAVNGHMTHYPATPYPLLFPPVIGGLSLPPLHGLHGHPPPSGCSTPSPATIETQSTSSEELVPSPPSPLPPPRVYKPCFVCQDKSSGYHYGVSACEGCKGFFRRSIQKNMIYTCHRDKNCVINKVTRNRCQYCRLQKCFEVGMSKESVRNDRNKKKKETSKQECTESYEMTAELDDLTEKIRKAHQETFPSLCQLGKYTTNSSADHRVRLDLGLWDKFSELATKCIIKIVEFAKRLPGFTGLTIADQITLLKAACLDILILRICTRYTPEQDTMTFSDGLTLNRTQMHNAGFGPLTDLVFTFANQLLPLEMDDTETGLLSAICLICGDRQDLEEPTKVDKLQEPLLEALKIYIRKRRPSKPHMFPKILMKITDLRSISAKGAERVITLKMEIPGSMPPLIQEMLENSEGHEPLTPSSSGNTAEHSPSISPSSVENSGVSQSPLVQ

EC50 (RXRγ [1]) [nM]	EC50 (RARβ [2]) [nM]	EC50 (RXRβ [3]) [nM]	EC50 (RARγ [4]) [nM]	EC50 (RXRα [5]) [nM]	EC50 (RARα [6]) [nM]	Kd (RXRα [7]) [nM]	Kd (RXRβ [8]) [nM]	Kd (RARγ [9]) [nM]	Kd (RXRγ [10]) [nM]	Kd (RARα [11]) [nM]	Kd (RARβ [12]) [nM]	SMILES	IC50 (ME 180 cell line) [nM]	IC50 (RPMI 8226 cell line) [nM]	IC50 (AML-193 cell line) [nM]
26	33	37	94	38	101	–	–	–	–	–	–	CC(/C=C/CC1CCCc2cc3c(cc21)C(C)(C)CCC3(C)C)=C\C(=O)O (racemic) [Compound 124b, (2E,4E)-3-Methyl-6-(1,2,3,4,5,6,7,8-octahydro-5,5,8,8-tetramethylanthracen-1-yl)hexa-2,4-dienoic acid]	–	–	–
–	–	–	–	–	–	–	–	–	–	–	–	CC1=C(/C=C/C(C)=C/C=C/C(C)=C/C(=O)O)C(C)(C)CCC1 [ATRA, all-trans retinoic acid, reference compound]	890	756	1000
127	20	52	14	> 10000	84	–	–	–	–	–	–	CC(/C=C/C=C1/CCC(C)(C)c2cc3c(cc21)C(C)(C)CCC3(C)C)=C\C(=O)O [Compound 106b, (2E,4E)-3-Methyl-6-[(Z)-1,2,3,4,5,6,7,8-hexahydro-4,4,5,5,8,8-hexamethyl-2H-anthracen-1-ylidene]hexa-2,4-dienoic acid]	–	–	–
2530	53	1980	47	2780	1170	–	–	–	–	–	–	CC(/C=C/C=C1\CCc2c1ccc1c2C(C)(C)CCC1(C)C)=C\C(=O)O [Compound 135b, (2E,4E)-3-Methyl-6-[(E)-2,3,6,7,8,9-hexahydro-6,6,9,9-tetramethyl-1H-cyclopenta[a]naphthalen-3-ylidene]hexa-2,4-dienoic acid]	–	–	–
2930	32	> 10000	12	> 10000	863	–	–	–	–	–	–	CC(/C=C/C(=O)N1CCc2cc3c(cc21)C(C)(C)CCC3(C)C)=C\C(=O)O [Compound 141b, (2E,4E)-3-Methyl-6-oxo-6-[(2,3,5,6,7,8-hexahydro-5,5,8,8-tetramethyl)benzo-[f]-indol-1-yl]hexa-2,4-dienoic acid]	–	–	–
247	466	472	1880	393	> 10000	–	–	–	–	–	–	CC(/C=C/CN1CCCc2c1ccc1c2C(C)(C)CCC1(C)C)=C\C(=O)O [Compound 143b, (2E,4E)-3-Methyl-6-(1,2,3,4,7,8,9,10-octahydro-7,7,10,10-tetramethylbenzo[f]quinolin-4-yl)hexa-2,4-dienoic acid]	–	–	–
1470	4	579	1	–	35	433	548	8	724	6	4	CCN1CC\C(=C/C=C/C(C)=C/C(=O)O)c2cc3c(cc21)C(C)(C)CCC3(C)C [Compound 147b, (2E,4E)-3-methyl-6-[(E)1-ethyl-6,6,9,9-tetramethyl-2,3,6,7,8,9-hexahydro-1H-benzo[g]quinolin-4-ylidene]hexa-2,4-dienoic acid]	–	–	–
> 10000	8	> 10000	32	> 10000	651	–	–	–	–	–	–	CC1(C)CCC(C)(C)c2cc3c(cc21)CCC/C3=N\Nc1ccc(C(=O)O)cc1 [Compound 152b, E-4-[N'-(5,5,8,8-tetramethyl-3,4,5,6,7,8-hexahydro-2H-anthracen-1-ylidene)-hydrazino]benzoic acid]	–	–	–
